{"source": "patent US20190350964A1", "about": "“ANTI-CANCER COMPOUNDS AND USES THEREOF” (NATIONAL UNIVERSITY OF SINGAPORE, priority 2016, published 2019)", "key": {"[1]": {"test_system": "normal BJ cells with activated H-RasV12-ER", "assay": "FACS subG1 in engineered BJ-derived fibroblasts", "format": "cell-based, human", "conditions": "5 μM, 48 h", "experimental": "Isogenic BJ human foreskin fibroblast cell lines, including non-transformed (normal) and transformed BJ cells and all gastric cancer cell lines, were kind gifts from Dr. Mathijs Voorhoeve and Dr. Patrick Tan (Duke-NUS), respectively and tested for mycoplasma infection. All other human cancer cell lines used in this study were purchased from ATCC and cultured in accordance with ATCC's instructions. H-RasV12-ER was activated by exposing the BJ-derived fibroblasts to 4-OHT (100 nM, Sigma-Aldrich). Three different sets of siRNAs were used in this study to target PI5P4K isoform DNA sequences as follows:\nCell death was assessed via Annexin V and/or PI (propidium iodide) staining according to the manufacturer's instructions (eBioscience). Cell growth arrest was assessed by direct measurement of DNA synthesis through incorporation of the nucleoside analog bromodeoxyuridine (BrdU). Briefly, BrdU (30 μM, Sigma-Aldrich) was added for 2 h before harvesting cells. […] Stained cells were analyzed by MACSQuant (MACS). […] The percentage of Annexin V/PI- or BrdU-positive cells was quantified using Flow Jo software (Becton Dickinson). Where indicated, the combined activity of caspase-3/7 was determined using the caspase-Glo 3/7 Assay Kit (Promega) and normalized to the number of viable cells as determined by MTT assay."}, "PIK3IP1": {"test_system": "PIK3IP1", "assay": "qRT-PCR and immunoblot of PIK3IP1 in BJ cells", "format": "cell-based, human", "conditions": "5 μM, 24 h", "experimental": "Total RNA was isolated from cultured cells using the RNeasy mini kit (Qiagen). cDNA was synthesized from 1 μg of total RNA using the iScript cDNA synthesis kit (Bio-Rad). qRT-PCR analysis was performed using the iQ SYBR Green Super mix (Bio-Rad) using the following gene-specific primers:\nhuman PI5P4Kα (5′-[…]-3′; SEQ ID NO: 11, 5′-[…]-3′; SEQ ID NO: 12), human PI5P4Kβ (5′-[…]-3′; SEQ ID NO: 13, 5′-[…]-3′; SEQ ID NO: 14), human PI5P4Kγ (5′-[…]-3′; SEQ ID NO: 15, 5′-[…]-3′; SEQ ID NO: 16) and human PIK3IP1 (5′-[…]-3′; SEQ ID NO: 17, 5′-[…]-3′; SEQ ID NO: 18). The TATA-binding protein (TBP) gene was used for normalization. All PCR reactions were performed in triplicate.\nTotal cell lysates were prepared with 1% triton lysis buffer [25 mM Tris HCl (pH 8.0), 150 mM NaCl, 1% triton-X100, 1 mM dithiothreitol (DTT), protease inhibitor mix (Complete Mini, Roche) and phosphatase inhibitor (PhosphoStop, Roche)] and subjected to SDS-PAGE. […] Where indicated, intensities of protein bands were quantified by densitometry (Odyssey V3.0), normalized to their loading controls and then calculated as fold expression change relative to DMSO control."}, "[2]": {"target": "T1, Delta(3,5)-Delta(2,4)-dienoyl-CoA isomerase, mitochondrial (Homo sapiens, UniProt Q13011)", "T1 construct": "After collecting data covering >8,000 proteins in lysates of normal BJ cells; endogenous in cells; host or cells: normal BJ cells, lysate", "T1 sequence (Q13011 34-328)": "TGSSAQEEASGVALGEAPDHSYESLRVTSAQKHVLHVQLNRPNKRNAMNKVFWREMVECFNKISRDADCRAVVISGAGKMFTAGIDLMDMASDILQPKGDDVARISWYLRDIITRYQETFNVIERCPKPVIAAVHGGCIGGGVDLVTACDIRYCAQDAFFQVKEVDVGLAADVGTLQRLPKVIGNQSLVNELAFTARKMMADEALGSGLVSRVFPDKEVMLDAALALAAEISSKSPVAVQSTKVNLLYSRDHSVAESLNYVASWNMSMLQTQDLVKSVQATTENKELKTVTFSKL", "assay": "MS-CETSA in normal BJ cell lysates", "format": "binding", "conditions": "lysate, 100 μM compound", "procedure": "(§1) Target identification was performed by cellular thermal shift assay (CETSA) coupled with quantitative mass spectrometry. In brief, normal BJ cells were lysed by combination of freeze/thaw and mechanical shearing with needle in buffer [50 mM HEPES (pH 7.5), 5 mM β-glycerophosphate, 0.1 mM Sodium Vanadate, 10 mM MgCl2, 1 mM TCEP and 1× Protease inhibitor Cocktail]. The cell debris was removed by centrifugation at 20,000 g for 20 min at 4° C. […] Each lysate was divided into 10 aliquots for heat treatment at the respective temperatures for 3 min in a 96-well thermocycler, followed by 3 min at 4° C. The lysate was centrifuged at 20,000 g for 20 min at 4° C. and the supernatant was transferred into microtubes for MS sample preparation.\n(§2) After lysis, at least 100 μg of the protein (measured with a BCA assay) was subjected to reduction, denaturation and alkylation. Samples were subsequently incubated with sequencing grade LysC (Wako) and trypsin (Promega) for digestion overnight at 37° C. The digested samples were dried using a centrifugal vacuum evaporator, solubilized in 100 mM TEAB. […]\n(§3) Proteins for which a low temperature plateau was not present were deleted using a cut off >0.85 for the average reading of the first three temperature points (in our experience proteins melting already at −37° C. are more prone to give false positives in a shift analysis)."}, "transformed BJ cells": {"test_system": "transformed BJ cells", "assay": "Time-lapse live-cell imaging and immunofluorescence of mitosis", "format": "cell-based, human", "conditions": "2.5 μM", "experimental": "For immunofluorescence analysis, cells grown on coverglass-bottom chamber slides (Lab-Tek) were fixed with 4% PFA (paraformaldehyde) for 15 min at 25° C. The fixed cells were permeabilized with 0.5% Triton X-100 and exposed to TBS containing 0.1% Triton X-100 and 2% BSA (AbDil). The following primary antibodies were diluted in PBS containing 1% BSA and 0.1% Triton X-100: anti-γ-tubulin (Sigma-Aldrich, #T6557; 1:1000) and anti-β-tubulin (Abcam, #ab18207; 1:2000). Isotype-specific secondary antibodies (1:500 dilution) coupled to Alexa Fluor 488, 594, or Cy5 (Molecular Probes) were used. Cells were counterstained with DAPI (Thermo Scientific). Images were acquired at RT with 3D-SIM mode using a Super Resolution Microscope (Nikon) equipped with an iXon EM+885 EMCCD camera (Andor) mounted on a Nikon Eclipse Ti-E inverted microscope with a CFI Apo TIRF (100×/1.40 oil) objective and processed with the NIS-Elements AR software. For time-lapse live-cell analysis, a Stage Top Incubator with Digital CO2 mixer (Tokai) was used, and images were acquired at 37° C."}, "[3]": {"target": "T2, Isoform 2 of Ferrochelatase, mitochondrial (Homo sapiens, UniProt P22830)", "T2 construct": "After collecting data covering >8,000 proteins in lysates of normal BJ cells; endogenous in cells; host or cells: normal BJ cells (hTert-immortalised human foreskin fibroblasts), lysate", "T2 sequence (P22830 55-429 isoform P22830-2 limits assumed)": "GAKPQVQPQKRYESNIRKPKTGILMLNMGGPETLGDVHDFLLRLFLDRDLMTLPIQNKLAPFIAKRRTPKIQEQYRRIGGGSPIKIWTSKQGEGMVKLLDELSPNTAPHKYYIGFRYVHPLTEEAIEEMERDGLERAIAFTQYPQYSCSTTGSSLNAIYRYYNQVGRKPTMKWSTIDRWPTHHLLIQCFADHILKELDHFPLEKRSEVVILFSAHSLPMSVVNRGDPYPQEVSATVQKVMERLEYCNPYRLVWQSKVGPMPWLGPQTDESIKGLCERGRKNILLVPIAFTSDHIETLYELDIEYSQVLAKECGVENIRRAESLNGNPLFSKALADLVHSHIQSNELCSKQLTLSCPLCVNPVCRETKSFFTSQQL", "assay": "MS-CETSA in normal BJ cell lysates", "format": "binding", "conditions": "Uniprot P22830-2, lysate, 100 μM compound", "procedure": "as §1, §2, §3"}, "PI3K/Akt/mTOR pathway": {"test_system": "PI3K/Akt/mTOR pathway", "assay": "Immunoblot of phosphorylated Akt and p70S6K", "format": "cell-based, human", "conditions": "normal versus transformed BJ cells, 24 h", "experimental": "Total cell lysates were prepared with 1% triton lysis buffer [25 mM Tris HCl (pH 8.0), 150 mM NaCl, 1% triton-X100, 1 mM dithiothreitol (DTT), protease inhibitor mix (Complete Mini, Roche) and phosphatase inhibitor (PhosphoStop, Roche)] and subjected to SDS-PAGE. The following antibodies were used for immunoblotting: anti-β-actin (Sigma-Aldrich), anti-cleaved PARP (Abcam, #ab32064), anti-PI5P4Kα (#5527), anti-PI5P4Kβ (#9694), anti-cleaved caspase-3 (#9664), anti-pHistone H3(Ser10) (#3377), anti-pAkt(S473) (#9271), anti-pAkt(T308) (#13038), anti-total Akt (#9272), anti-p70S6K(T389) (#9234), anti-total p70S6K (#9202), anti-pErk (#4370), anti-γ-Histone H2AX (#9718) (Cell signaling) and anti-PIK3IP1 (Proteintech, #16826-1-AP). The secondary antibodies used were sheep anti-mouse IgG HRP and donkey anti-rabbit IgG HRP (Amersham; 1:2000 dilution). Immunoreactive proteins were visualized using ECL reagent (Amersham). Where indicated, intensities of protein bands were quantified by densitometry (Odyssey V3.0), normalized to their loading controls and then calculated as fold expression change relative to DMSO control."}, "Hep3": {"test_system": "Hep3", "assay": "MTT cytotoxicity test (GI50)", "format": "cell-based", "conditions": "Homo sapiens; Hep3, cancer, liver; MTT 72 h"}, "SCH": {"test_system": "SCH", "assay": "MTT cytotoxicity test (GI50)", "format": "cell-based", "conditions": "Homo sapiens, cancer, gastric, MTT 72 h"}}}
{"smiles": "N#C/C(=C\\c1cccc2cnccc12)c1c[nH]c2ccccc12", "note": "[a131, (Z)-2-(1H-indol-3-yl)-3-(5-isoquinolyl)prop-2-enenitrile]", "values": [{"measurement": "a131-induced cell death after 4-OHT-induced activation of H-RasV12-ER", "setting": "[1]", "value": "sufficient to sensitize normal BJ cells to a131-induced cell death"}, {"measurement": "PIK3IP1 mRNA and protein levels", "setting": "PIK3IP1; normal BJ cells", "value": "up-regulation of PIK3IP1 at both the mRNA and protein levels"}, {"measurement": "PIK3IP1 mRNA expression", "setting": "PIK3IP1; transformed BJ cells", "value": "unresponsive"}, {"measurement": "ED score", "setting": "[2]", "value": 0.3541}, {"measurement": "ΔTm at 100 µM", "setting": "[2]; read-out: mean Delta Tm", "value": 1.51, "unit": "°C"}, {"measurement": "mitotic arrest (time-lapse analysis)", "setting": "transformed BJ cells", "value": "immediately induced mitotic arrest in transformed BJ cells"}, {"measurement": "centrosome de-clustering and multipolar mitotic spindles", "setting": "transformed BJ cells; 32 h", "value": "caused de-clustered centrosomes and multipolar mitotic-spindles in transformed BJ"}, {"measurement": "ED score", "setting": "[3]", "value": 0.8366}, {"measurement": "ΔTm at 100 µM", "setting": "[3]; read-out: mean Delta Tm", "value": 3.81, "unit": "°C"}, {"measurement": "inhibition of the PI3K/Akt/mTOR pathway", "setting": "PI3K/Akt/mTOR pathway", "value": "consistently caused inhibition of the PI3K/Akt/mTOR pathway only in normal BJ cells, but not in transformed counterparts"}, {"measurement": "GI50", "setting": "Hep3", "value": 3.7, "unit": "µM"}, {"measurement": "GI50", "setting": "SCH", "value": 1.7, "unit": "µM"}]}
